Test results from patent US7160898B2, “Pharmacological treatment for sleep apnea” (Board of Trustees of The University of Illinois, priority 2002, dated 2007).

Assays:
[1] = system: cardiovascular variables; assay: Radiotelemetry of blood pressure and heart period after GR38032F (Example 2); type: in vivo, rat (Sprague-Dawley); conditions: 1 mg/kg i.p.
Text: After surgery, all animals were allowed to recover for one week before being subjected to another surgery that involved implantation of a radiotelemetry transmitter (TA11-PXT, Data Sciences International, St. Paul, Minn.) for monitoring blood pressure (BP) and heart period (HP), estimated as pulse interval. After the animals were anesthetized (as described above), the hair from the subxiphoid space to the pelvis was removed. The entire area was scrubbed with iodine and rinsed with alcohol and saline. A 4–6 cm midline abdominal incision was made to allow good visualization of the area from the bifurcation of the aorta to the renal arteries. A retractor was used to expose the contents of the abdomen and the intestine was held back using saline moistened gauze sponges. The aorta was dissected from the surrounding fat and connective tissues using sterile cotton applicators. A 3-0 silk suture was placed beneath the aorta and traction was applied to the suture to restrict the blood flow. Then the implant (TA11-PXT) was held by forceps while the aorta was punctured just cranial to the bifurcation using a 21-gauge needle bent at the beveled end. The tip of the catheter was inserted under the needle using the needle as a guide until the thin-walled BP sensor section was within the vessel. Finally, one drop of tissue adhesive (Vetbond®, 3M, Minneapolis, Minn.) was applied to the puncture site and covered with a small square of cellulose fiber (approximately 5 mm^2) so as to seal the puncture after catheter insertion. The radio implant was attached to the abdominal wall by 3-0 silk suture, and the incision was closed in layers. After the second surgery, animals were again allowed a one week recovery period prior to administration of the serotonin receptor antagonist and subsequent physiological recording.
(§1) Physiological parameters (see below) from each animal were recorded on 2 occasions in random order, with recordings for an individual animal separated for at least 3 days. Fifteen minutes prior to each recording each animal received a systemic injection (1 ml/kg intraperitoneal bolus injection) of either saline (control) or 1 mg/kg of ondansetron (GR38032F; 1,2,3,9-tetrahydro-9-methyl-3-[(2-methylimidazol-1-yl)methyl]carbazole-4-one, hydrochloride, dihydrate; Glaxo Wellcome, Inc., Research Triangle Park, N.C.). Polygraphic recordings were made from hours 10:00–16:00.
Similar software (Experimenters' Workbench; Datawave Technologies, Longmont, Colo.) was employed to analyze the blood pressure waveform; for each beat of each recording, systolic (SBP) and diastolic (DBP) blood pressures and pulse interval were measured. The pulse interval provided a beat by beat estimate of HP. Mean BP (MBP) was estimated according to the weighted average of SBP and DBP for each beat: MBP=DBP+(SBP−DBP)/3. The parameters for each beat were also classified according to the sleep/wake state and recording hour during which they occurred.

[2] = system: NREM and REM sleep; assay: Sleep/wake staging by EEG/EMG after GR38032F (Example 2); type: in vivo, rat (Sprague-Dawley); conditions: 1 mg/kg i.p.
Protocol: as §1
Respiration was recorded by placing each animal, unrestrained, inside a single chamber plethysmograph (PLYUNIR/U; Buxco Electronics, Sharon, Conn.; dimension 6 in.×10 in.×6 in.) ventilated with a bias flow of fresh room air at a rate of 2 L/min. A cable plugged onto the animal's connector and passed through a sealed port was used to carry the bioelectrical activity from the head implant.
Sleep and waking states were assessed using the biparietal EEG and nuchal EMG signals on 10-second epochs as described by Bennington et al. [Sleep, 17:28–36 (1994)]. […] Sleep efficiency was measured as the percentage of total recorded epochs staged as NREM or REM sleep.

[3] = system: 5-hydroxytryptamine receptors; conditions: anesthetized animals; cited from earlier work
[4] = system: sleep/wake architecture; assay: Sleep/wake architecture after 5-HT and GR38032F (Example 3); type: in vivo, rat (Sprague-Dawley); conditions: i.p.
Protocol: Sleep and waking states were assessed using the biparietal EEG and nuchal EMG signals on 10-second epochs as described by Bennington et al. [Sleep, 17:28–36 (1994)]. This software discriminated wakefulness (W) as a high frequency low amplitude EEG with a concomitant high EMG tone, NREM sleep by increased spindle and […] activity together with decreased EMG tone, and REM sleep by a […] activity and an absence of EMG tone. Sleep efficiency was measured as the percentage of total recorded epochs staged as NREM or REM sleep.
Each animal was recorded on four occasions, with recordings for an individual animal separated by at least three days. Fifteen minutes prior to each recording, each animal received (via intraperitoneal injection), in random order, one of the following: (a) saline solution (control); (b) 0.79 mg/kg serotonin; (c) 0.1 mg/kg GR38032F plus 0.79 mg/kg serotonin; or (d) 0.1 mg/kg GR38032F. For the GR38032F+serotonin test group, 0.1 mg/kg GR38032F was administered at time 09:30 followed by 0.79 mg/kg serotonin at time 09:45. Polygraphic recordings were made from 10:00–16:00.
Respiration BP, EEG, and EMG data were determined and recorded via the experimental procedure as specifically set forth above in Example 2. As in Example 2, sleep apneas, defined as cessation of respiratory effort for at least 2.5 s, were scored for each recording session and were associated with the stage in which they occurred: NREM or REM sleep. The duration requirement of 2.5 s represents at least two “missed” breaths, which is analogous to a 10-s apnea duration requirement in humans.
The effects of sleep stage (NREM vs REM) and injection (control vs. administration of either serotonin alone, GR38032F+serotonin, or GR38032F alone) on apnea indexes, respiratory pattern, BP, and HP were tested using analysis of variance (ANOVA) with repeated measures. Multiple comparisons were controlled using Fisher's protected least-significance difference (PLSD). One-way ANOVA was also performed by nonparametric (Kruskal-Wallis) analysis. Conclusions using parametric and nonparametric ANOVA were identical in all cases.

[5] = percent recording time, 6 hours, 5-HT 0.79 mg/kg, GR38032F 0.1 mg/kg, mean ± SE

Cc1nccn1CC1CCc2c(c3ccccc3n2C)C1=O.Cl.O.O (centres unmarked) [GR38032F, 1,2,3,9-tetrahydro-9-methyl-3-[(2-methylimidazol-1-yl)methyl]carbazole-4-one, hydrochloride, dihydrate]
HP, NREM ([1]; NREM sleep, mean ± SE): 189 ± 3 ms | Mean BP, NREM ([1]; NREM sleep, mean ± SE): 112 ± 17 mm Hg | HP, REM ([1]; REM sleep, mean ± SE): 190 ± 3 ms | Mean BP, REM ([1]; REM sleep, mean ± SE): 110 ± 17 mm Hg | effect on cardiovascular variables (MBP and HP during W, NREM, REM sleep) ([1]; p>0.1 for each variable): no effect on any cardiovascular variable | HP, W ([1]; wakefulness, mean ± SE): 183 ± 3 ms | Mean BP, W ([1]; wakefulness, mean ± SE): 113 mm Hg | percentage of total recording time spent in REM sleep ([2]; 6 hours): did not significantly affect REM sleep | percentage of total recording time spent in NREM sleep ([2]; first 2 hours, p<0.001): significant suppression of NREM sleep | antagonism of agonist-induced transient apnea [3]: significantly antagonized | effect on sleep architecture ([4]; 6 hours of polygraphic recording): had no effect on sleep architecture | % NREM [4, 5]: 63.4 ± 5.7% | % REM [4, 5]: 7.3 ± 2.3% | % Wakefulness [4, 5]: 28.8 ± 6.4%
